Results as given in patent publication US20250136577A1, “HETEROCYCLIC DERIVATIVES AS MALT1 INHIBITORS” (C4X Discovery Limited, priority 2022, published 2025).

Experiments:
[1] = biological target: MALT1-GS-Ub (6-His-hMALT-1 residues 339-715 fused to ubiquitin) (Homo sapiens (Human), UniProt Q9UDY8); experiment: MALT1 Protease Assay 1 (Assay 1), cleavage of fluorogenic tetrapeptide substrate; assay type: biochemical; conditions: MALT1-GS-Ub 300-600 nM, Ac-LVSR-AMC 100 μM, 30 min preincubation, 60 min read
Protocol: MALT1 Protease Assay 1 (Assay 1)
(§1) MALT1 protease activity was assessed in vitro by measuring the cleavage of a fluorogenic tetrapeptide substrate.
A protein (MALT1-GS-Ub) comprising 6-His-hMALT-1 (residues 339-715), fused to ubiquitin with an 8× GGS linker, was expressed in E. coli, and purified using chitin resin to remove contaminants followed by affinity chromatography purification and size-exclusion chromatography, according to standard protocols.
Briefly, MALT1-GS-Ub (300-600 nM) was incubated with substrate (Ac-LVSR-AMC, 100 μM) in reaction buffer comprising 50 mM HEPES (pH7.0), 25 mM KCl, 0.1% (v/v) CHAPS and 1 mM TCEP.
(§2) Test compounds dissolved in DMSO were dispensed into assay plates (384-well, black, shallow ProxiPlates). 7 μl enzyme solution was added and incubated at room temperature for 30 minutes to allow compound binding to occur. 2 μl substrate solution was then added and the fluorescence (excitation 360 nm, emission 460 nm) read every 15 minutes using a suitable plate reader. Final assay DMSO concentration was 1%. Linearity over 60 minutes was confirmed, and assay signal was calculated by subtracting raw counts at time 0 from those at 60 minutes. % inhibition was calculated for each well, using no enzyme for 100% inhibition controls and no compound for 0% inhibition controls. IC50 values were calculated using GraphPad Prism using a 4-parameter non-linear regression curve fit.

FL hMALT1 enzyme = FL hMALT1 enzyme (Homo sapiens (Human), UniProt Q9UDY8); experiment: MALT1 Protease Assay 2 (Assay 2), higher sensitivity, cleavage of fluorogenic tetrapeptide substrate; assay type: biochemical; conditions: FL hMALT1 1-10 nM, Ac-LVSR-AMC 100 μM, 0.7 M sodium citrate, 30 min preincubation, 60 min read
Protocol: MALT1 Protease Assay 2 (Assay 2)
as §1
For a higher sensitivity assay, commercially available FL hMALT1 enzyme (Abcam, 1-10 nM) was incubated with substrate (Ac-LVSR-AMC, 100 μM) in reaction buffer comprising 50 mM HEPES (pH7.0), 25 mM KCl, 0.1% (v/v) CHAPS, 1 mM TCEP and 0.7 M sodium citrate.
as §2

[2] = system: IL-2 release from stimulated Jurkat cells; experiment: Human IL-2 Release Phenotypic Assay (Assay 3); assay type: cell-based; conditions: Jurkat cells (clone E6-1), 200 ng/ml PMA + 300 ng/ml ionomycin, IL-2 in supernatant by ELISA
Protocol: Human IL-2 Release Phenotypic Assay (Assay 3)
This assay measured the inhibition by MALT1 inhibitors of the IL-2 release from stimulated Jurkat cells, a human immortalized T lymphocyte cell line. IL-2 production from Jurkat cells is regulated by activation of NFκB signalling, which is in turn regulated by MALT1 protease activity.
Jurkat cells (clone E6-1, ATCC) were cultured in RPMI1640 supplemented with 10% (v/v) FBS and 1% (v/v) penicillin/streptomycin (100× liquid stocks). Cells were seeded in 96-well white tissue culture-treated plates (Perkin Elmer) at 50 000 cells/well and incubated overnight at 37° C., 5% CO2. Test compounds in DMSO at half-log dilutions were added to the cells and incubated for 30 mins. Final DMSO concentration was 0.5%. Cells were then stimulated with 200 ng/ml PMA+300 ng/ml ionomycin and incubated for 48 hours. IL-2 present in the supernatant was then measured by ELISA according to the kit instructions (ELISA MAX Deluxe Set Human IL-2, BioLegend). % inhibition was calculated for each well, using 30 μM of the commercially available MALT1 inhibitor, MLT-748, for 100% inhibition controls and no compound for 0% inhibition controls. IC50 values were calculated using GraphPad Prism using 4-parameter non-linear regression curve fit.

Sequence of MALT1-GS-Ub (6-His-hMALT-1 residues 339-715 fused to ubiquitin) (Q9UDY8 other isoform, or with tags, fused parts or gaps): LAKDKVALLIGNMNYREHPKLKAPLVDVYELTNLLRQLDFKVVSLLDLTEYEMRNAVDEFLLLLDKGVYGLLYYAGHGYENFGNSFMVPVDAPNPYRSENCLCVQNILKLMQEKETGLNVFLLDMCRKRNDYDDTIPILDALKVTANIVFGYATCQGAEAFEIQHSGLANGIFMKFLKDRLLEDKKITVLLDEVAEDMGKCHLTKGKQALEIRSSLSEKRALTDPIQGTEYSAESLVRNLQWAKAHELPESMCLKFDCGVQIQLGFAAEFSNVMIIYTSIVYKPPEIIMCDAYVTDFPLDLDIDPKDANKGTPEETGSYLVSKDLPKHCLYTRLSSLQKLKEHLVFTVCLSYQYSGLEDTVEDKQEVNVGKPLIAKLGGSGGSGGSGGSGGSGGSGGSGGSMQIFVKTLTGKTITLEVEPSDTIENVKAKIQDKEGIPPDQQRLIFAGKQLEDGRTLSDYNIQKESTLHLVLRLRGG
Sequence of FL hMALT1 enzyme (Q9UDY8 whole entry): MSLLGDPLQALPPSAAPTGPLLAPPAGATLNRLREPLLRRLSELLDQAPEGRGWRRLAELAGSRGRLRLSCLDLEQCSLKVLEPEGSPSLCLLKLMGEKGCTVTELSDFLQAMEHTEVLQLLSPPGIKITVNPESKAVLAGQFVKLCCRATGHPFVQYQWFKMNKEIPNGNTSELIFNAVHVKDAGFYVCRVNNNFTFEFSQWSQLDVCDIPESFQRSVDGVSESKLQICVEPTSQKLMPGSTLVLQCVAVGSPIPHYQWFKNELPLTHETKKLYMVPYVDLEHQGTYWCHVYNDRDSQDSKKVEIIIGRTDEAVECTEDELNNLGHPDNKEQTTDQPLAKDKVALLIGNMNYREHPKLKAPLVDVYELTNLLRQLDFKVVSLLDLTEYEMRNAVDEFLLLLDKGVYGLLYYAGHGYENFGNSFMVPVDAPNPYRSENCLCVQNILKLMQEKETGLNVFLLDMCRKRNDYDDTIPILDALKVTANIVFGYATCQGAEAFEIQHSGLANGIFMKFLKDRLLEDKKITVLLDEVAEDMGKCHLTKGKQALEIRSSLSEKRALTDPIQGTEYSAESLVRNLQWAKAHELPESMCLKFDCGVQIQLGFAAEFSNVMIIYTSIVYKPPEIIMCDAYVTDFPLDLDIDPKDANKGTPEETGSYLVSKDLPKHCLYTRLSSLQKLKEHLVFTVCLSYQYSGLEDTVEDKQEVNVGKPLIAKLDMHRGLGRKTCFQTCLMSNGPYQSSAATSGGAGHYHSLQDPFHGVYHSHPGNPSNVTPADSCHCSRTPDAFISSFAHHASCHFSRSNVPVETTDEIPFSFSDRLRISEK

| Compound | IC50 [1] [nM] | IC50 (FL hMALT1 enzyme) [nM] | IC50 ([2]; Homo sapiens, Jurkat, 48 h) [nM] | IC50 ([2]; 48 hours) [nM] |
| --- | --- | --- | --- | --- |
| CCC1CN(C(=O)Nc2cnc(-n3nccn3)c(Cl)c2)c2cncc(Br)c2O1 (single isomer, unassigned) [Example 47, 8-Bromo-N-(5-chloro-6-(2H-1,2,3-triazol-2-yl)pyridin-3-yl)-2-ethyl-2,3-dihydro-4H-pyrido[4,3-b][1,4]oxazine-4-carboxamide] |  | 130 |  | > 10000 |
| N#CC1CN(C(=O)Nc2cnc(-n3nccn3)c(C(F)(F)F)c2)c2cccc(Br)c2O1 (stereo not drawn) [Example 6, N-(6-(2H-1,2,3-Triazol-2-yl)-5-(trifluoromethyl)pyridin-3-yl)-8-bromo-2-cyano-2,3-dihydro-4H-benzo[b][1,4]oxazine-4-carboxamide] | 700 | 100 | 2100 |  |
| CC1(C#N)CN(C(=O)Nc2cnc(-n3nccn3)c(Cl)c2)c2cccc(Br)c2O1 (stereo not drawn) [Example 18, 8-Bromo-N-(5-chloro-6-(2H-1,2,3-triazol-2-yl)pyridin-3-yl)-2-cyano-2-methyl-2,3-dihydro-4H-benzo[b][1,4]oxazine-4-carboxamide] | 850 | 190 | 1900 |  |
| CC1(C)CN(C(=O)Nc2cnc(-n3nccn3)c(Cl)c2)c2cncc(Br)c2O1 [Example 19, 8-Bromo-N-(5-chloro-6-(2H-1,2,3-triazol-2-yl)pyridin-3-yl)-2,2-dimethyl-2,3-dihydro-4H-pyrido[4,3-b][1,4]oxazine-4-carboxamide] | 730 | 150 | 1100 |  |
| O=C(Nc1cnc(-n2nccn2)c(Cl)c1)N1CCOc2c(Br)cncc21 [Example 21, 8-Bromo-N-(5-chloro-6-(2H-1,2,3-triazol-2-yl)pyridin-3-yl)-2,3-dihydro-4H-pyrido[4,3-b][1,4]oxazine-4-carboxamide] | 2300 | > 3000 | > 10000 |  |
| CC1(C)CN(C(=O)Nc2cnc(-n3nccn3)c(C(F)(F)F)c2)c2cccc(Br)c2O1 [Example 23, N-(6-(2H-1,2,3-Triazol-2-yl)-5-(trifluoromethyl)pyridin-3-yl)-8-bromo-2,2-dimethyl-2,3-dihydro-4H-benzo[b][1,4]oxazine-4-carboxamide] | 860 | 110 | 290 |  |
| C[C@@H]1CN(C(=O)Nc2cnc(-n3nccn3)c(Cl)c2)c2cncc(Br)c2N1C [Example 26, (R)-8-Bromo-N-(5-chloro-6-(2H-1,2,3-triazol-2-yl)pyridin-3-yl)-1.2-dimethyl-2,3-dihydropyrido[3,4-b]pyrazine-4 (1H)-carboxamide] | 800 | 110 | 1300 |  |
| CC1CN(C(=O)Nc2cnc(-n3nccn3)c(Cl)c2)c2cncc(Br)c2O1 (stereo not drawn) [Example 30, 8-Bromo-N-(5-chloro-6-(2H-1,2,3-triazol-2-yl)pyridin-3-yl)-2-methyl-2,3-dihydro-4H-pyrido[4,3-b][1,4]oxazine-4-carboxamide] | 1500 | 1500 | 420 |  |
| CC1(C)CN(C(=O)Nc2cnc(-n3nccn3)c(Cl)c2)c2cncc(Cl)c2O1 [Example 32, 8-Chloro-N-(5-chloro-6-(2H-1,2,3-triazol-2-yl)pyridin-3-yl)-2,2-dimethyl-2,3-dihydro-4H-pyrido[4,3-b][1,4]oxazine-4-carboxamide] | 1800 | 120 | 1200 |  |
| CC[C@@H]1CN(C(=O)Nc2cnc(-n3nccn3)c(Cl)c2)c2cncc(Br)c2N1C [Example 34, (R)-8-Bromo-N-(5-chloro-6-(2H-1,2,3-triazol-2-yl)pyridin-3-yl)-2-ethyl-1-methyl-2,3-dihydropyrido[3,4-b]pyrazine-4 (1H)-carboxamide] | 970 | 50 | 290 |  |
| CC(C)[C@@H]1CN(C(=O)Nc2cnc(-n3nccn3)c(Cl)c2)c2cncc(Br)c2N1C [Example 35, (R)-8-Bromo-N-(5-chloro-6-(2H-1,2,3-triazol-2-yl)pyridin-3-yl)-2-isopropyl-1-methyl-2,3-dihydropyrido[3,4-b]pyrazine-4 (1H)-carboxamide] | 730 | 60 | 170 |  |
| Nc1ncc2c(c1Br)OCCN2C(=O)Nc1cnc(-n2nccn2)c(Cl)c1 [Example 36, 7-Amino-8-bromo-N-(5-chloro-6-(2H-1,2,3-triazol-2-yl)pyridin-3-yl)-2,3-dihydro-4H-pyrido[4.3-b][1.4]oxazine-4-carboxamide] |  | 2200 | 1700 |  |

Further compounds by falling IC50 (FL hMALT1 enzyme), results first:

| IC50 [1] [nM] | IC50 (FL hMALT1 enzyme) [nM] | IC50 ([2]; Homo sapiens, Jurkat, 48 h) [nM] | IC50 ([2]; 48 hours) [nM] | Compound |
| --- | --- | --- | --- | --- |
|  | 120 |  | 4460 | CC(C)C1CN(C(=O)Nc2cnc(-n3nccn3)c(Cl)c2)c2cncc(Br)c2O1 (single isomer, unassigned) [Example 49, 8-Bromo-N-(5-chloro-6-(2H-1,2,3-triazol-2-yl)pyridin-3-yl)-2-isopropyl-2,3-dihydro-4H-pyrido[4,3-b][1,4]oxazine-4-carboxamide] |
|  | 80 |  | > 10000 | CC(C)C1CN(C(=O)Nc2cnc(-n3nccn3)c(Cl)c2)c2cncc(Br)c2O1 (single isomer, unassigned) [Example 48, 8-Bromo-N-(5-chloro-6-(2H-1,2,3-triazol-2-yl)pyridin-3-yl)-2-isopropyl-2,3-dihydro-4H-pyrido[4,3-b][1,4]oxazine-4-carboxamide] |
| 340 | 60 | 300 |  | O=C(Nc1cnc(-n2nccn2)c(Cl)c1)N1CC(C(F)(F)F)Oc2c(Br)cncc21 (single isomer, unassigned) [Example 40, 8-Bromo-N-(5-chloro-6-(2H-1,2,3-triazol-2-yl)pyridin-3-yl)-2-(trifluoromethyl)-2,3-dihydro-4H-pyrido[4,3-b][1,4]oxazine-4-carboxamide] |
|  | 60 | 1400 |  | Cc1ncc2c(c1Br)OC(C(F)(F)F)CN2C(=O)Nc1cnc(-n2nccn2)c(Cl)c1 (single isomer, unassigned) [Example 43, 8-Bromo-N-(5-chloro-6-(2H-1,2,3-triazol-2-yl)pyridin-3-yl)-7-methyl-2-(trifluoromethyl)-2,3-dihydro-4H-pyrido[4,3-b][1,4]oxazine-4-carboxamide] |
|  | 60 | 390 |  | Cc1ncc2c(c1C#N)OC(C(F)(F)F)CN2C(=O)Nc1cnc(-n2nccn2)c(Cl)c1 (single isomer, unassigned) [Example 53, N-(5-Chloro-6-(2H-1,2,3-triazol-2-yl)pyridin-3-yl)-8-cyano-7-methyl-2-(trifluoromethyl)-2,3-dihydro-4H-pyrido[4,3-b][1,4]oxazine-4-carboxamide] |
|  | 60 | 350 |  | N#Cc1cncc2c1OC(C(F)(F)F)CN2C(=O)Nc1cnc(-n2nccn2)c(Cl)c1 (single isomer, unassigned) [Example 55, N-(5-Chloro-6-(2H-1,2,3-triazol-2-yl)pyridin-3-yl)-8-cyano-2-(trifluoromethyl)-2,3-dihydro-4H-pyrido[4,3-b][1,4]oxazine-4-carboxamide] |
|  | 30 |  | 740 | CCC1CN(C(=O)Nc2cnc(-n3nccn3)c(Cl)c2)c2cncc(Br)c2O1 (single isomer, unassigned) [Example 46, 8-Bromo-N-(5-chloro-6-(2H-1,2,3-triazol-2-yl)pyridin-3-yl)-2-ethyl-2,3-dihydro-4H-pyrido[4,3-b][1,4]oxazine-4-carboxamide] |
|  | 21 | 286 |  | Cc1ncc2c(c1C#N)OC(C(F)(F)F)CN2C(=O)Nc1cnc(OC(F)F)c(Cl)c1 (single isomer, unassigned) [Example 61, N-(5-Chloro-6-(difluoromethoxy)pyridin-3-yl)-8-cyano-7-methyl-2-(trifluoromethyl)-2,3-dihydro-4H-pyrido[4,3-b][1,4]oxazine-4-carboxamide] |
